According to publication PMC2603313, “Direct Inhibition of GSK3β by the Phosphorylated Cytoplasmic Domain of LRP6 in Wnt/β-Catenin Signaling” (PLoS ONE, 2008):
“Also recorded” adds a separate entry of the source. Ends that are not written are not given here.

B1: Axin fragment: His-tagged Axin fragment (residues 512–650) including the GBD and the β-catenin binding domain (protein, UniProt O35625 512-650, looked up, fragment)
chain: GKHVPKLGLKLDTAGLHHHRHVHHHVHHNSARPKEQMEAEVARRVQSSFSWGPETHGHAKPRSYSENAGTTLSAGDLAFGGKTSAPSKRNTKKAESGKNANAEVPSTTEDAEKNQKIMQWIIEGEKEISRHRKAGHGSS
modifications: His tag

Columns and labels:
A549 cells [1] = experiment: β-Catenin immunofluorescence in transfected A549 cells; type: cell-based; conditions: GFP fusion
From the text: (§1) Figure 1 LRP6 constructs and their cytoplasmic overexpression in cell. (A) Schematic representation of the full-length LRP6 and amino acid sequences of LRP6 intracellular fragments used in this study. The Ser/Thr rich cluster and PPPSPxS motif are underlined in each sequence. Phosphorylated residues are highlighted. (B) Cytosolic overexpression of the LRP6 constructs. A549 cells in which control (empty vector, EV, encoding only GFP), miniCL and miniCLMT were transfected as GFP fusion proteins. Control, miniCL and miniCLMT were detected through the green fluorescence from GFP. β-Catenin was detected using an anti-β-catenin antibody, and the nuclei were detected by DAPI staining. […] Endogenous β-catenin was detected by an anti-β-catenin antibody. p-GS indicates the level of the phosphorylated GS by GSK3β, detected by anti-glycogen synthase (Ser641) antibody. p-S9-GSK3β indicates the phosphorylated Ser9 of GSK3β, and was detected by anti-phospho GSK3β (Ser9) antibody. Levels of transfected proteins were detected using monoclonal GFP antibody, indicated by GFP. Total cellular levels of GS and GSK3β were measured by anti-GS antibody and anti-GSK3β antibody, which are indicated by t-GS and t-GSK3β, respectively. […] (D) Activation of Wnt/β-catenin signaling, which was measured by the Top-flash luciferase activity. […] The luciferase activities were measured after 24 h of the transfection. […]

HepG2 cells [2] = experiment: β-Catenin immunofluorescence in transfected HepG2 cells; type: cell-based; conditions: GFP fusion
Experimental: (§2) pEGFP-miniCL and pEGFP-miniCLMT vectors were transfected into A549 cells and HepG2 cells using jetpei according to the manufacturer's protocol (Polyplus transfection). In brief, 2 µg of DNA and jetpei mixtures were added to A549 cells and HepG2 cell and incubated for 3 h under serum-free conditions, and then equal volumes of DMEM containing 20% serum were added. After 24 h incubation, cells were harvested using RIPA (containing protease cocktail). Subsequently, 20 µg of protein lysates were applied to SDS-PAGE. After transferring the proteins to a PVDF membrane, samples were incubated with the appropriate antibodies, according to standard western blot protocol.
Transfected cells were fixed with 100% methanol for 20 min at −20°C. After washing with PBS and subsequent blocking with blocking buffer (PBS+0.05% BSA), fixed cells were incubated with anti-β-catenin antibody for 2 h at room temperature. […] After washing with PBS, expression of β-catenin, GFP, and DAPI were analyzed using fluorescence microscopy.
Supplementary file pone.0004046.s001.tif: Figure S1 Cytosolic overexpression of the LRP6 constructs in HepG2 cells. […] Control, miniCL and miniCLMT were detected through the green fluorescence from GFP. β-Catenin was detected using an anti-β-catenin antibody, and the nuclei were detected by DAPI staining. […]

A549 cells [3] = experiment: Western blot of β-catenin in transfected A549 cells; type: cell-based; conditions: GFP fusion, 24 h
From the text: as §1

HepG2 cells [4] = experiment: Western blot of β-catenin in transfected HepG2 cells; type: cell-based; conditions: GFP fusion, 24 h
Experimental: as §2
Supplementary file pone.0004046.s002.tif: Figure S2 Western blotting analysis from the transfected HepG2 cells. Labels at the left side of blots indicate the antibody used for detection of the corresponding protein. The endogenous β-catenin level was detected by an anti-β-catenin antibody. p-GS indicates the level of the phosphorylated GS by GSK3β, detected by anti-glycogen synthase (Ser641) antibody. p-S9-GSK3β indicates the phosphorylated Ser9 of GSK3β, and was detected by anti-phospho GSK3β (Ser9) antibody. Levels of transfected proteins were detected using monoclonal GFP antibody, indicated by GFP. Pan-Ras is shown as a loading control. (0.05 MB TIF) Click here for additional data file.

glycogen synthase = experiment: Western blot of phosphorylated glycogen synthase (Ser641) in transfected A549 cells; type: cell-based; conditions: GFP fusion, anti-glycogen synthase (Ser641)
From the text: as §1

GSK3β [5] = experiment: Western blot of GSK3β phosphorylated at Ser9 in transfected A549 cells; type: cell-based; conditions: GFP fusion
From the text: as §1

Wnt/β-catenin signaling = experiment: TOP-flash luciferase assay in 293 cells; type: cell-based; conditions: 24 h after transfection, 4 independent experiments, p<0.01 vs empty vector and vs miniCLMT
From the text: as §1

GSK3β [6] = target: T1, GSK3β (Mus musculus, UniProt Q9WV60); experiment: Far western binding of GSK3β to miniCL in presence of Axin GBD; conditions: phosphorylated GST-miniCL; GSK3β 0.1 µg/ml; GST-Axin GBD 0, 10 µM; three independent experiments
T1 construct: The catalytic domains of mouse GSK3β (residues 27–393) and CK1ε (residues 1–319) were expressed and purified; made in house
T1 sequence (Q9WV60 27-393): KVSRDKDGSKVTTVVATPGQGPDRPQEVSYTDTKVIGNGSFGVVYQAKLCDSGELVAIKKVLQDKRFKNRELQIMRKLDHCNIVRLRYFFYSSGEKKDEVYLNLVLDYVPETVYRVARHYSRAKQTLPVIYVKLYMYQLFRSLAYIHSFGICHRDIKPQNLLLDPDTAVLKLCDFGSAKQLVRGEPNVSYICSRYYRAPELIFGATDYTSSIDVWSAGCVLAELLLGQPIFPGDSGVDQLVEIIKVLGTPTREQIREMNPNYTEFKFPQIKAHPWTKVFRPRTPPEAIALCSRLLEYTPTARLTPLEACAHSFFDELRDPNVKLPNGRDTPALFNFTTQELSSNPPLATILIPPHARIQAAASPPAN
Experimental: Figure 4 Phosphorylation-dependent binding of the LRP6 intracellular region to GSK3β in the absence and presence of Axin. (A) GST (Lane 1), GST-fused miniCL (Lane 3; GST-miniCL), GST-fused miniCLMT (Lane 5; GST-miniCLMT), and their phosphorylated forms (Lanes 2, 4, 6; indicated by “phos”) were loaded onto an SDS-polyacrylamide gel, and then transferred to PVDF membrane (Left top). […] The phosphorylated protein bands show an upshifted mobility on the gel. The PVDF membrane was incubated with 1 µg/ml of GSK3β to allow GSK3β to bind to the proteins in the membrane. The bound GSK3β was visualized on the transferred proteins by western blotting using an anti-GSK3β antibody (Left bottom), and the GSK3β protein used to obtain the phosphorylated forms of each protein is indicated by GSK3β*. The band intensities of bound GSK3β were measured from the three independent experiments (Right). […] The phosphorylated GST-fused miniCL was transferred to PVDF membrane, and the membrane was incubated with GSK3β (0.1 µg/ml) and GST-fused Axin GBD domain protein (0, 10 µM). Error bars indicate the standard deviation from three independent experiments. […]
GST-fusion proteins (GST-miniCL, GST-miniCLMT, GST-PPPSPxS, GST-PPPAPxS) were subjected to SDS-PAGE and transferred to a PVDF membrane. […] The binding of GSK3β was detected with rabbit anti-GSK3β antibody and secondary HRP-conjugated goat anti-rabbit IgG (Pierce).

LRP6 miniCL = experiment: Far western binding of Axin fragment to LRP6 miniCL with GSK3β; set-up: species or system human; conditions: GST-miniCL 15 µg on PVDF; GSK3β 2 µg/ml and/or His-Axin 12 µg/ml
Experimental: Figure 4 Phosphorylation-dependent binding of the LRP6 intracellular region to GSK3β in the absence and presence of Axin. (A) GST (Lane 1), GST-fused miniCL (Lane 3; GST-miniCL), GST-fused miniCLMT (Lane 5; GST-miniCLMT), and their phosphorylated forms (Lanes 2, 4, 6; indicated by “phos”) were loaded onto an SDS-polyacrylamide gel, and then transferred to PVDF membrane (Left top). […] The phosphorylated protein bands show an upshifted mobility on the gel. The PVDF membrane was incubated with 1 µg/ml of GSK3β to allow GSK3β to bind to the proteins in the membrane. The bound GSK3β was visualized on the transferred proteins by western blotting using an anti-GSK3β antibody (Left bottom), and the GSK3β protein used to obtain the phosphorylated forms of each protein is indicated by GSK3β*. The band intensities of bound GSK3β were measured from the three independent experiments (Right). […] The phosphorylated GST-fused miniCL was transferred to PVDF membrane, and the membrane was incubated with GSK3β (0.1 µg/ml) and GST-fused Axin GBD domain protein (0, 10 µM). Error bars indicate the standard deviation from three independent experiments. (C) GSK3β mediates the binding of an Axin fragment to LRP6 miniCL region. […]

Row | Molecule | Total cellular β-catenin and nuclear translocation (A549 cells [1]) | Total cellular β-catenin and nuclear translocation (HepG2 cells [2]) | β-catenin level (western blot) (A549 cells [3]) | β-catenin level (western blot) (HepG2 cells [4]) | Phosphorylation of glycogen synthase (p-GS) (glycogen synthase) | Phosphorylation of Ser9 in GSK3β (GSK3β [5]) | TOP-flash luciferase activity (Wnt/β-catenin signaling) | Effect of Axin GBD on GSK3β binding to miniCL (GSK3β [6]) | Binding to LRP6 miniCL (LRP6 miniCL)
1 | miniCL: LRP6 miniCL (residues 1470–1510 of human LRP6), GFP fusion in cells (SSSSSSTKGTYFPAILNPPPSPATERSHYTMEFGYSSNSPS; not fully specified; also: GFP fusion in cells (GFP left off)) | dramatically increased the total amount of cellular β-catenin and promoted the translocation of β-catenin into the nucleus | dramatically increased the total amount of cellular β-catenin and promoted the translocation of β-catenin into the nucleus | increased level of β-catenin | increased level of β-catenin | suppressed phosphorylation of glycogen synthase | without the induction of phosphorylation of Ser9 in GSK3β | significantly induced TOP-flash activity; also recorded: significantly activated Wnt/β-catenin signaling | does not affect the binding of GSK3β; also recorded: not affected by the presence of Axin | 
2 | B1 |  |  |  |  |  |  |  |  | bound to LRP6 miniCL only in the presence of GSK3β; also recorded: bound to the LRP6 miniCL fragment only when GSK3β was co-incubated
